Patent US4511574A, “N-(4-Phenyl-2-thiazolyl)carbamate derivatives” (Mitsui Toatsu Kagaku Kabushiki Kaisha, priority 1981, dated 1985)
Structures can show the parent of a compound that is named as a salt.

Columns and labels:
[1] = tested on: delayed hypersensitivity induced by picryl chloride; experiment: Reinforcement test of delayed hypersensitivity (picryl chloride); assay type: in vivo, ICR male mice; settings: 50 mg/Kg oral, simultaneously with sensitization; 24 hours after challenging; average of both pinnae of eight mice; * P<0.05, ** P<0.01 vs control
Excerpt: This feature will hereinafter be described by way of test examples. Various test systems using animals have been routinely adopted for the determination of immunomodulating activity.
The delayed hypersensitivity induced on a mouse when picryl chloride(2-chloro-1,3,5-trinitrobenzene) is applied onto the skin of the mouse is known as a typical cellular immunity.
This test system was used for the reinforcement tests of the delayed hypersensitivity.
Groups of eight ICR male mice, each having a body weight of about 30 g or so, were used for the test.
Sensitization was effected by applying a 3% solution of picryl chloride in a 4/1 mixture of olive oil and acetone onto the shaved abdomen of each of the mice.
Simultaneously with the sensitization, a solution or suspension of a compound according to this invention dissolved or suspended in a 0.2% solution of carboxymethyl cellulose in a physiological saline was orally administered to the mouse at a dose of 50 mg per Kg of its body weight. To each mouse of a control group, a 0.2% carboxymethylcellulose solution in a physiological saline was similarly administered.
The delayed hypersensitivity was induced 7 days after the sensitization by pinching each of the pinnae of each mouse with a pair of forceps whose tip portions were wrapped with a felt impregnated with a 1% solution of picryl chloride in olive oil and coating the pinnae with the solution. The thickness of each pinna was measured before the challenging and 24 hours after the challenging and the ratio of increase of the thickness (average value of both of the pinnae of the eight mice) is shown in Table 1.
For comparison, a similar test was carried out using Levamisole hydrochloride.
F.t tests were carried out on the thus-obtained test results.

[2] = tested on: adjuvant arthritis (Mycobacterium tuberculosis adjuvant); experiment: Adjuvant arthritis test; assay type: in vivo, SD male rats; settings: 5 mg/Kg subcutaneous, 9 times; left hind leg; average value from 16th to 20th days; * P<0.05, ** P<0.01, *** P<0.001 vs control
Excerpt: Next, a result of tests made on immuno-modulating activity in the adjuvant arthritis test is shown.
The adjuvant arthritis in rats caused by the injection of a Mycobacterium tuberculosis adjuvant is often utilized for a model test of chronic rheumatoid arthritis in the human.
The mechanism of manifestation of this disease has not completely been elucidated, but it is known that the cellular immunity plays an important role. The immuno-modulating activity of the compounds according to this invention was investigated in accordance with this known adjuvant arthritis test.
8-Week-old SD male rats were used for the test. In 0.1 ml of fluid paraffin, 0.4 mg of dry dead cells of Mycobacterium tuberculosis were suspended, and the suspension was injected under the heel skin of the right hind leg of each rat. Each of the compounds according to this invention was subcutaneously administered 9 times in total before and after the injection of the adjuvant. Each of the compounds of the present invention was dissolved or suspended in a 0.2% solution of carboxymethylcellulose in physiological saline and administered to each rat at a dose of 5 mg per Kg of the body weight. The swollen volume of the left hind leg was measured during the period extending from the day of injection to the day of completion of the test, and the swelling ratio was calculated. For comparison, a similar test was conducted using Levamisole hydrochloride. F.t tests were carried out on the test results obtained.

[3] = tested on: ddY male mice; experiment: Acute toxicity test through oral administration; assay type: in vivo; settings: five ddY male mice per group, watched 7 days
Excerpt: TEST EXAMPLE 3 (ACUTE TOXICITY TEST THROUGH ORAL ADMINISTRATION)
Test Procedures: To each of a group of five ddY male mice, was orally administered a medicine dissolved or suspended in physiological saline. They were watched for 7 days after the administration and an estimated LD50 value was obtained.

Row | SMILES | Ratio of Increase of Pinna Thickness [1] | Swell suppression ratio to control group [2] | estimated LD50 value [3]
1 | O=C(Nc1nc(-c2ccc([N+](=O)[O-])cc2)cs1)OCC(Cl)(Cl)Cl [drawing 5] | 36.1% |  | 
2 | CCOC(=O)Nc1nc(-c2ccc([N+](=O)[O-])cc2)cs1 [drawing 7] | 34.8% |  | 
3 | CS(=O)(=O)c1ccc(-c2csc(NC(=O)OCC(Cl)(Cl)Cl)n2)cc1 [drawing 6] | 37.8% |  | 
4 | CCOC(=O)Nc1nc(-c2ccc([N+](=O)[O-])cc2)cs1 [drawing 11] |  | 71.4% | 
5 | c1ccc([C@H]2CN3CCSC3=N2)cc1 [Levamisole.HCl, Levamisole hydrochloride, reference compound] | 31.2% | 19.8% | 200 to 300 mg/kg
6 | CCOC(=O)Nc1nc(-c2ccc(S(C)(=O)=O)cc2)cs1 [drawing 12] |  | 47.6% | 
7 | CS(=O)(=O)c1ccc(-c2csc(NC(=O)OCC(Cl)(Cl)Cl)n2)cc1 [drawing 10] |  | 30.0% | 
8 | O=C(Nc1nc(-c2ccc([N+](=O)[O-])cc2)cs1)OCC(Cl)(Cl)Cl [drawing 9] |  | 45.0% | 
9 | CCOC(=O)Nc1nc(-c2ccc(S(C)(=O)=O)cc2)cs1 [drawing 8] | 36.0% |  | 
